Data: patent US20250000847A1, “TREATMENT OF NEURODEGENERATIVE DISEASES WITH HDAC INHIBITORS” (CASE WESTERN RESERVE UNIVERSITY, priority 2021, published 2025)
pIC50: −log10 of the molar value. Like-named read-outs stand apart in the source and are kept apart here.

Tests used:
HDAC = conditions: cell-free assay where stated; read-out: IC50 (pan-HDAC); cited from earlier work
HDACs 2, 3, 6, and 10 = conditions: cited from earlier work
HDAC1 = HDAC1 (Homo sapiens, UniProt Q13547); conditions: cell-free assays where stated; cited from earlier work
Sequence of HDAC1 (Q13547 whole entry, species assumed): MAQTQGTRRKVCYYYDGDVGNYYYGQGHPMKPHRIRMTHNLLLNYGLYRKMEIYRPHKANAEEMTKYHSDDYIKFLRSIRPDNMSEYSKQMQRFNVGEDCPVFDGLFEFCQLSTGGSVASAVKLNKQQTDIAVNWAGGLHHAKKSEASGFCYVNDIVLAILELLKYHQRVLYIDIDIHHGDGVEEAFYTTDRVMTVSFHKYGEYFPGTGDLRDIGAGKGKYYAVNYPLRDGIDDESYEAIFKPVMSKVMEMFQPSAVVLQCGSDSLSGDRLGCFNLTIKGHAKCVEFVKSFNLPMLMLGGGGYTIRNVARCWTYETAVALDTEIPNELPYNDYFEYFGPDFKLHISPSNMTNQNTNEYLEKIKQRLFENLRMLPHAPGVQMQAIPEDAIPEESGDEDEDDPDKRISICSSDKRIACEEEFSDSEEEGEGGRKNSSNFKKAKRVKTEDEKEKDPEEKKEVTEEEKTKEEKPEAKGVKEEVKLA

HDAC2 = HDAC2 (Homo sapiens, UniProt Q92769); conditions: cell-free assays where stated; cited from earlier work
Sequence of HDAC2 (Q92769 whole entry, species assumed): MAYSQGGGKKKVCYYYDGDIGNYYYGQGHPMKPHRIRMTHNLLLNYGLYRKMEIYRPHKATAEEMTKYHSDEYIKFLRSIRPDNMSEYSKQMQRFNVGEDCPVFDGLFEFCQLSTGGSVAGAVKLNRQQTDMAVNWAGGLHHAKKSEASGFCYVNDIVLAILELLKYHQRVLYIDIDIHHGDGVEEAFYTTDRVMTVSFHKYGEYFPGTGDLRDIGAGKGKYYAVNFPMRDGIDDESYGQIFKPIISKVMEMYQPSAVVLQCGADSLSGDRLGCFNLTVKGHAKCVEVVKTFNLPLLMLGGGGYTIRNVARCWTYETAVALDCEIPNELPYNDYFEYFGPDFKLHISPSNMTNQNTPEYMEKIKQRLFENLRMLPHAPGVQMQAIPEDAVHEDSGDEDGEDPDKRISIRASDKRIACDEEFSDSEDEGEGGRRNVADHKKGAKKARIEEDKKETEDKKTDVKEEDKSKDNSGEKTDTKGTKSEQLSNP

HDAC3 = HDAC3 (Homo sapiens, UniProt O15379); conditions: cell-free where stated; cited from earlier work
Sequence of HDAC3 (O15379 whole entry, species assumed): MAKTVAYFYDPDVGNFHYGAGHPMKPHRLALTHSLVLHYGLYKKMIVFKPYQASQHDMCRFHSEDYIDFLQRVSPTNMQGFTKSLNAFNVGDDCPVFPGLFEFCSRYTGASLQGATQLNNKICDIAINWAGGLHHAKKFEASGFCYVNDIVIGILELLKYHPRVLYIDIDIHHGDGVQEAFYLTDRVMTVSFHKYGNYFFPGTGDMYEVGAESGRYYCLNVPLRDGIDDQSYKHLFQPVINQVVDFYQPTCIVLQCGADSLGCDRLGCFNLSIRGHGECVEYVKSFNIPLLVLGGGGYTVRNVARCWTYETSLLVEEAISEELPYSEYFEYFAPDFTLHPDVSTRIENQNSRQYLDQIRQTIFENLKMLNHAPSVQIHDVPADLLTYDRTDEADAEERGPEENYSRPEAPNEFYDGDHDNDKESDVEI
Sequence of HDAC3 (Q9Y618 395-489 partner limits assumed, species assumed): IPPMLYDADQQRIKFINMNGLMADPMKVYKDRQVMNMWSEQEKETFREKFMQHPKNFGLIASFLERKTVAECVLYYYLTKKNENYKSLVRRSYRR

HDAC6 = HDAC6 (Homo sapiens, UniProt Q9UBN7); conditions: cell-free assays; cited from earlier work
Sequence of HDAC6 (Q9UBN7 whole entry, species assumed): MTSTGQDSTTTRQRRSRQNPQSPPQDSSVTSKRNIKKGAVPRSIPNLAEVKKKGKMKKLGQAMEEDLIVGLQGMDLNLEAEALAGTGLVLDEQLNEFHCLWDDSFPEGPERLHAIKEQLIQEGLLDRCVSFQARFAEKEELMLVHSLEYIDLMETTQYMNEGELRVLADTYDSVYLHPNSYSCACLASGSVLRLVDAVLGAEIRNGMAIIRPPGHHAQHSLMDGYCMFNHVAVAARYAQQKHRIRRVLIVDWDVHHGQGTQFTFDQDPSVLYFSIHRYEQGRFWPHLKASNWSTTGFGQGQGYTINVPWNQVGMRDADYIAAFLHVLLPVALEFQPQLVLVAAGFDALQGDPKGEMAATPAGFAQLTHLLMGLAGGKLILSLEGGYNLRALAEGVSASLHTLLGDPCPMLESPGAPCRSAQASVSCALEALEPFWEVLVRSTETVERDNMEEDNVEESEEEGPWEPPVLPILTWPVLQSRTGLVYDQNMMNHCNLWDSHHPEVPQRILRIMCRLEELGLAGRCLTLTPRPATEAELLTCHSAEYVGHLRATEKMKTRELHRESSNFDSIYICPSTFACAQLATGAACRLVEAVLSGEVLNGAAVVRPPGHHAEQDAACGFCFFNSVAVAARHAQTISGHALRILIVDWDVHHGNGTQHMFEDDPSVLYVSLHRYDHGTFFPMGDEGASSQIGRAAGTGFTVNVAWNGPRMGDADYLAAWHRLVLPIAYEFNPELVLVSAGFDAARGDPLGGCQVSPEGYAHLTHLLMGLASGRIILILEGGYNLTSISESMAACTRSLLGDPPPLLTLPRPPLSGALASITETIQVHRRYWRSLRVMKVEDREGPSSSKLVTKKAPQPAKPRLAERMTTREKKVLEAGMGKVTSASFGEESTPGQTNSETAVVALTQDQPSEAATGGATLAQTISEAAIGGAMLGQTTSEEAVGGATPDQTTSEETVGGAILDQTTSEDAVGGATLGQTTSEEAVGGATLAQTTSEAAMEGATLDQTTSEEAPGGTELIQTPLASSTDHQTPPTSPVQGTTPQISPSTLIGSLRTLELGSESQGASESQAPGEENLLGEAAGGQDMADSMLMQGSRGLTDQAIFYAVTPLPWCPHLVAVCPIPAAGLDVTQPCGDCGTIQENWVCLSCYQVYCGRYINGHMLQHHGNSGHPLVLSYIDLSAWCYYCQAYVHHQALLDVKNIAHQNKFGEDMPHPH

maize HD1A = conditions: cell-free assays; cited from earlier work
maize HD1B = conditions: cell-free assays; cited from earlier work
maize HD2 = conditions: cell-free assays; cited from earlier work
[1] = molecular target: class III isoenzyme SIRT I (Homo sapiens, UniProt Q96EB6); conditions: cited from earlier work
Sequence of class III isoenzyme SIRT I (Q96EB6 whole entry): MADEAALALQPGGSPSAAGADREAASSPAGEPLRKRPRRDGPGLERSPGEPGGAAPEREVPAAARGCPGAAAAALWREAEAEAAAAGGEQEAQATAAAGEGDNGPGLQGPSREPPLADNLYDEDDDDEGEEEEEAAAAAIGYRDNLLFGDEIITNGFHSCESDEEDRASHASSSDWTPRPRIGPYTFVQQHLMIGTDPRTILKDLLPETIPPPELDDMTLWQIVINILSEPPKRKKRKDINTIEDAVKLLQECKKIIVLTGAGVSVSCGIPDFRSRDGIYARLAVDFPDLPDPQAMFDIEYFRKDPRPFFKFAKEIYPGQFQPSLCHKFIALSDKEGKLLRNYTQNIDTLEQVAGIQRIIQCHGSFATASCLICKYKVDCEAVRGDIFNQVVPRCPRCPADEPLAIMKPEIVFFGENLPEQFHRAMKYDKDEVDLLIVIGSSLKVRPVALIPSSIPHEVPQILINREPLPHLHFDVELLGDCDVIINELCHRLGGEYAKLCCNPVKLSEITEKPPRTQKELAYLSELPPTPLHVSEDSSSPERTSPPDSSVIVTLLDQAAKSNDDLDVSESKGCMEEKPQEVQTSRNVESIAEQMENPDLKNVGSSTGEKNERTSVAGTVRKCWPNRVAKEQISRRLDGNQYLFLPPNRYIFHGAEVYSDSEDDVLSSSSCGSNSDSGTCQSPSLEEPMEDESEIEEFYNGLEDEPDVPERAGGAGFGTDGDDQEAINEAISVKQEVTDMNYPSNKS

HDACs 6 and 7 = conditions: cited from earlier work
HDACs 2, 4, 10, and 11 = conditions: cited from earlier work
[2] = test system: HDAC4/5/7/9/11, Sirtuin1, and Sirtuin2; conditions: cited from earlier work
HDAC8 = HDAC8 (Homo sapiens, UniProt Q9BY41); conditions: cited from earlier work
Sequence of HDAC8 (Q9BY41 whole entry, species assumed): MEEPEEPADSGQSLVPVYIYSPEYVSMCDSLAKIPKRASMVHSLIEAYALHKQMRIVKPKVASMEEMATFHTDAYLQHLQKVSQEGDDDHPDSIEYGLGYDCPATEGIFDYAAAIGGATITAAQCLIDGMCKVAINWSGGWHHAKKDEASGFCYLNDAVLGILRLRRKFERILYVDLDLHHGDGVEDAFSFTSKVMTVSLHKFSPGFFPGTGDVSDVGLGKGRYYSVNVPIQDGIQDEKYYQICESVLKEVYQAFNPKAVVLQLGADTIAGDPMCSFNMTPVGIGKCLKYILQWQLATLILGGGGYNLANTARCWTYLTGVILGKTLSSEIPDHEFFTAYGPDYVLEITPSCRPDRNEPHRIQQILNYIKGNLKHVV

acetylated H4 and H3 = conditions: cited from earlier work
CCL5 = CCL5 secretion by reactive astrocytes (ELISA); assay type: cell-based, mouse; conditions: FIG. 4
Protocol: Astrocytes were plated and treated exactly as described for the antigen cross presentation assay. However, after 24 hrs of incubation with either reactive astrocyte driving factors alone or with HDAC inhibitor treatment, conditioned media from the cells was collected and assayed for CCL5 using a commercially available colorimetric ELISA kit (RnD Cat #: DY478-05). Data was then fit to a standard four parameter logistic (4PL) curve and presented as pg/mL/cell, normalized to reactive astrocytes plus DMSO vehicle (FIG. 4).
Media was collected from mouse P2 primary astrocytes that had been cultured for 24 hrs in the presence of cytokines with and without HDAC3 inhibitors and compared to media from astrocytes not treated with cytokines. The concentration of CCL5, a cytokine secreted by reactive astrocytes, was measured in each of the respective media conditions based on the direct adsorption of CCL5 to a pre-coated capture antibody on the ELISA assay plate. The ELISA sandwich assay was performed according to the manufacturer's instructions (DY478-05, R&D Systems). Relative CCL5 concentration were measured based on absorbance measured by a plate reader.

RelA/P65 = experiment: Nuclear RelA/P65 in reactive astrocytes; assay type: cell-based, mouse
Protocol: For immunocytochemistry, cells were fixed with ice-cold 4% PFA for 15 minutes at room temperature, washed three times with PBS, blocked and permeabilized with 10% donkey serum and 0.1% Triton X-100 in PBS for 1 hr, and then stained with primary overnight followed by three washes with PBS, and then 1 hr incubation with Alexaflour secondary antibodies and DAPI. Stained cells were imaged using the PerkinElmer Operetta CLS High-Content Analysis System and analyzed using automated scripts in PerkinElmer Columbus Image Analysis software. Primary antibodies used were GBP2 (ProteinTech, 11854-1-AP), vimentin (BioLegend, 919101), RelA/P65 (Cell Signaling Tech, 6956), MBP (Abeam, AB7349).

[3] = test system: MHC Class I (H-2Kb) bound to OVA257-264 on reactive astrocytes; experiment: OVA257-264 peptide antigen cross presentation assay; assay type: cell-based, mouse; conditions: for treated cells H-2 kB-OVA positive DRAs: reactive astrocytes without inhibitor more than about 80%
Protocol: To test whether HDAC inhibitors block the ability of reactive astrocytes to cross present exogenous antigen, cells were plated down in 96-well plates at a density of about 500 cells/mm^2. Cells were then treated with HDAC inhibitors for 1 hr prior to the addition of reactive astrocyte driving factors as the concentrations stated above. Cells were incubated for 24 hrs, after which, media was washed out and replaced with media containing the peptide fragment ovalbumin 257-264 (OVA257-264). Cells were then incubated overnight, and then stained for 2 hrs at 37° C. with APC-conjugated antibody against MHC Class I (H-2Kb) bound to OVA257-264, then visualized. The percent of H-2Kb positive cells as a percent of total live cells was determined (FIG. 3).
After 24 hours of treatment, these cells were cultured in the presence of the OVA257264 Peptide (GenScript RP10611 or Sigma S7951). After 12 hours, the cells were live-stained for two hours using a conjugated antibody targeted against an OVA257-264 peptide antigen. The cells were then fixed and imaged using the PerkinElmer Operetta CLS High-Content Analysis System.

## CC(C)[C@H](C(=O)Nc1ccc(C(=O)NO)cc1)c1ccccc1 [AR-42]
HDAC
  pIC50: 7.52

## CN(C)Cc1c(C(=O)NCCOc2ccc(C(=O)NO)cc2)oc2ccccc12 [Abexinostat]
HDACs 2, 3, 6, and 10
  potency to HDACs 2, 3, 6, and 10: modest potent to HDACs 2, 3, 6, and 10 and greater

## Nc1ccccc1NC(=O)c1cnccn1 [BG45]
HDAC1
  pIC50: 5.70
HDAC2
  pIC50: 5.66
HDAC3
  pIC50: 6.54
HDAC6
  pIC50: < 4.70

## O=C(/C=C/c1ccc(CN(CCO)CCc2c[nH]c3ccccc23)cc1)NO [Dacinostat]
HDAC
  pIC50: 7.49

## CCN(CC)Cc1ccc2cc(COC(=O)Nc3ccc(C(=O)NO)cc3)ccc2c1 [Givinostat]
Maize HD1A
  pIC50: 7.80
Maize HD1B
  pIC50: 8.12
Maize HD2
  pIC50: 8.00

## CN(C)c1ccc(C(=O)NCCCCCCC(=O)NO)cc1 [M344]
HDAC
  pIC50: 7.00

## CCCCc1nc2cc(/C=C/C(=O)NO)ccc2n1CCN(CC)CC [Pracinostat]
HDAC
  pIC50: 6.85 to 7.40
[1]
  activity against the class III isoenzyme SIRT I: no

## Cn1cc(CNCC2CCN(c3ncc(C(=O)NO)cn3)CC2)c2ccccc21 [Quisinostat]
HDACs 6 and 7
  potency to HDACs 6 and 7: selectivity against HDACs 3, 5, 8, and 9 and lowest
HDACs 2, 4, 10, and 11
  potency to HDACs 2, 4, 10, and 11: modest potent

## O=C(CCCCCCNC(=O)c1cnc(N(c2ccccc2)c2ccccc2)nc1)NO [Rocilinostat]
[2]
  activity against HDAC4/5/7/9/11, Sirtuin1, and Sirtuin2: minimal
HDAC8
  activity against HDAC8: slight activity

## O=C(CCCCCN1C(=O)c2cccc3cccc(c23)C1=O)NO [Scriptaid]
Acetylated H4 and H3
  effect on acetylated H4 versus H3: greater effect on acetylated H4 than H3.

## Nc1ccccc1NC(=O)c1ccc(-c2cn(CCc3ccsc3)nn2)cc1 [T247]
CCL5
  secretion of CCL5 by reactive astrocytes: significantly decrease
HDAC3
  pIC50: 7.26
RelA/P65
  nuclear RelA/P65: decreases
RelA/P65; listed as T24710
  nuclear RelA/P65: decreased
[3]; FIG. 3
  ability of reactive astrocytes to cross present antigen on MHC Class I: decrease
[3]; about 2.5 μM
  treated cells H-2 kB-OVA positive DRAs: about 8%
[3]; about 5.0 μM
  treated cells H-2 kB-OVA positive DRAs: about 20%

## Trichostatin A
HDAC
  pIC50: ~8.74
